Measurements published in patent US9505752B2, “Piperidine amide derivatives as HIV attachment inhibitors” (priority 2012, dated 2016).
Like-named read-outs stand apart in the source and are kept apart here.

System: HIV-1 LAI envelope single-round infectious reporter virus
Experiment: Single-round infectious luciferase reporter virus (HIV-1 LAI envelope) infection of MT2 cells
Type: cell-based
Conditions: Human immunodeficiency virus 1, MT2, 72 h
Description: • Virus production—Human embryonic Kidney cell line, 293T (HEK 293T), was propagated in Dulbecco's Modified Eagle Medium (Invitrogen, Carlsbad, Calif.) containing 10% fetal bovine serum (FBS, Sigma, St. Louis, Mo.). The human T-cell leukemia cell MT2 (AIDS Research and Reference Reagent Program, Cat. 237) was propagated in RPMI 1640 (Invitrogen, Carlsbad, Calif.) containing 10% fetal bovine serum (FBS, Hyclone, Logan, Utah) • Virus infection—Single-round infectious reporter virus was produced by co-transfecting HEK 293T cells with plasmide expressing the HIV-1 LAI envelope along with a plasmid containing an HIV-1 LAI proviral cDNA with the envelope gene replaced by a firefly luciferase reporter gene (Chen et al., Ref 41). Transfections were performed using lipofectAMINE PLUS reagent as described by the manufacturer (Invitrogen, Carlsbad, Calif.). Experimental Procedure • 1. MT2 cells were plated in black, 384 well plates at a cell density of 5×10^3 cells per well in 25 μl RPMI 1640 containing 10% FBS. • 2. Compound (diluted in dimethylsulfoxide and growth medium) was added to cells at 12.5 μl/well, so that the final assay concentration would be ≦50 nM. • 3. 12.5 μl of single-round infectious reporter virus in Dulbecco's Modified Eagle Medium was added to the plated cells and compound at an approximate multiplicity of infection (MOI) of 0.01, resulting in a final volume of 50 μl per well. • 4. Virus-infected cells were incubated at 37 degrees Celsius in a CO2 incubator and harvested 72 h after infection. • 5. Viral infection was monitored by measuring luciferase expression in the infected cells using a luciferase reporter gene assay kit (Steady-Glo, Promega, Madison, Wis.) as described by the manufacturer. Luciferase activity was then quantified by measuring luminescence using an EnVision Multilabel Plate Readers (PerkinElmer, Waltham, Mass.). • 6. The percent inhibition for each compound was calculated by quantifying the level of luciferase expression in cells infected in the presence of each compound as a percentage of that observed for cells infected in the absence of compound and subtracting such a determined value from 100. • 7. An EC50 provides a method for comparing the antiviral potency of the compounds of this invention. The effective concentration for fifty percent inhibition (EC50) was calculated with the Microsoft Excel Xlfit curve fitting software. For each compound, curves were generated from percent inhibition calculated at 10 different concentrations by using a four parameter logistic model (model 205). Table 1 is the key for the data in Table 2.

[1] = read-out: EC50 Group from Table 1

| Compound | EC50 [1] [nM] | EC50 [nM] |
| --- | --- | --- |
| C/C=C(\c1ccccc1)C1CCN(C(=O)C(=O)c2c[nH]c3ccccc23)CC1 [Compound 1003] | > 500 | – |
| COc1ncc(OC)c2c(C(=O)C(=O)N3CCC4(CC3)CC4(C#N)c3ccccc3)c[nH]c12 (centres unmarked) [Compound 2001, 6-(2-(4,7-dimethoxy-1H-pyrrolo[2,3-c]pyridin-3-yl)-2-oxoacetyl)-1-phenyl-6-azaspiro[2.5]octane-1-carbonitrile] | < 500 | – |
| O=C(C(=O)N1CCC(C(=O)c2ccccc2)CC1)c1c[nH]c2ccccc12 [Compound 1001] | > 500 | 3490 |
| O=C(C(=O)N1CCC(Cc2ccccc2)CC1)c1c[nH]c2c(-n3ccnn3)ncc(F)c12 [Compound 1006] | < 500 | – |
| COc1cnc(-n2cnc(C)n2)c2[nH]cc(C(=O)C(=O)N3CCC(C(O)(c4ccccc4)c4nccn4C)CC3)c12 (centres unmarked) [Compound 2005, 1-(4-(hydroxy(1-methyl-1H-imidazol-2-yl)(phenyl)methyl)piperidin-1-yl)-2-(4-methoxy-7-(3-methyl-1H-1,2,4-triazol-1-yl)-1H-pyrrolo[2,3-c]pyridin-3-yl)ethane-1,2-dione] | < 500 | – |
| N#CC1(c2ccccc2)CC12CCN(C(=O)C(=O)c1c[nH]c3c(-n4ccnn4)ncc(F)c13)CC2 (centres unmarked) [Compound 2002, 6-(2-(4-fluoro-7-(1H-1,2,3-triazol-1-yl)-1H-pyrrolo[2,3-c]pyridin-3-yl)-2-oxoacetyl)-1-phenyl-6-azaspiro[2.5]octane-1-carbonitrile] | < 500 | – |
| N#CC(c1ccccc1)C1CCN(C(=O)C(=O)c2c[nH]c3c(-n4ccnn4)ncc(F)c23)CC1 (centres unmarked) [Compound 1008] | < 500 | 0.2 |
| COc1cnc(-n2cnc(C)n2)c2[nH]cc(C(=O)C(=O)N3CCC4(CC3)CC4(C#N)c3ccccc3)c12 (centres unmarked) [Compound 2003, 6-(2-(4-methoxy-7-(3-methyl-1H-1,2,4-triazol-1-yl)-1H-pyrrolo[2,3-c]pyridin-3-yl)-2-oxoacetyl)-1-phenyl-6-azaspiro[2.5]octane-1-carbonitrile] | < 500 | 2.52 |
| COc1cnc(-n2cnc(C)n2)c2[nH]cc(C(=O)C(=O)N3CCC(C(C#N)c4ccccc4)CC3)c12 (centres unmarked) [Compound 1009] | < 500 | – |
| COc1cnc(-n2ccnn2)c2[nH]cc(C(=O)C(=O)N3CCC4(CC3)CC4(c3ccccc3)c3nnc(C)o3)c12 (centres unmarked) [Compound 1005] | < 500 | 0.75 |
| O=C(C(=O)N1CCC(C(O)(c2ccccc2)c2ccccc2)CC1)c1c[nH]c2c(-n3ccnn3)ncc(F)c12 [Compound 1007] | < 500 | – |
| Cn1ccnc1C(c1ccccc1)C1CCN(C(=O)C(=O)c2c[nH]c3c(-n4ccnn4)ncc(F)c23)CC1 (centres unmarked) [Compound 2006, 1-(4-fluoro-7-(1H-1,2,3-triazol-1-yl)-1H-pyrrolo[2,3-c]pyridin-3-yl)-2-(4-((1-methyl-1H-imidazol-2-yl)(phenyl)methyl)piperidin-1-yl)ethane-1,2-dione] | < 500 | – |
| COc1cnc(-n2cnc(C)n2)c2[nH]cc(C(=O)C(=O)N3CCC(C(c4ccccc4)c4nccn4C)CC3)c12 (centres unmarked) [Compound 2007, 1-(4-methoxy-7-(3-methyl-1H-1,2,4-triazol-1-yl)-1H-pyrrolo[2,3-c]pyridin-3-yl)-2-(4-((1-methyl-1H-imidazol-2-yl)(phenyl)methyl)piperidin-1-yl)ethane-1,2-dione] | < 500 | – |
| C=C(c1ccccc1)C1CCN(C(=O)C(=O)c2c[nH]c3ccccc23)CC1 [Compound 1004] | > 500 | – |
| CC(C)=C(c1ccccc1)C1CCN(C(=O)C(=O)c2c[nH]c3ccccc23)CC1 [Compound 1002] | > 500 | – |
| Cn1ccnc1C(O)(c1ccccc1)C1CCN(C(=O)C(=O)c2c[nH]c3c(-n4ccnn4)ncc(F)c23)CC1 (centres unmarked) [Compound 2004, 1-(4-fluoro-7-(1H-1,2,3-triazol-1-yl)-1H-pyrrolo[2,3-c]pyridin-3-yl)-2-(4-(hydroxy(1-methyl-1H-imidazol-2-yl)(phenyl)methyl)piperidin-1-yl)ethane-1,2-dione] | < 500 | – |
